Results on 1 compound are retold here after patent US11576987B2, “Compositions and methods of treating melanoma” (UNIVERSITY OF IOWA RESEARCH FOUNDATION, priority 2016, dated 2023).

One data set has as its system MCR1 expression. The data set can be described thus: Flow cytometry analysis of MCR1 expression in malignant melanoma cells. It counts as cell-based, human. The settings on record: BRAF^V600E mutant melanoma cell lines (A2058, A375), 3 mmole 4-PBA, 4 h and 24 h. How it is done: FIG. 1: Flowcytometry analysis of MCR1 expression in A375 malignant melanoma cells. A375 cells were treated with either 2 μmole Vemurafenib or 3 mmole 4-PBA for 4 h and 24 h (n=3). The treated and untreated (control) cells were stained with anti-MC1R-phycoerythrin (PE) monoclonal antibody conjugate. Fluorescence intensity was corrected by auto-fluorescence of cells without staining and data were expressed as relative (vs control) fluorescence intensity±SD. Statistical significance was determined by Student's T-test (*P<0.05; **P<0.01; ***P<0.001; ****P<0.0001).
FIG. 2: Flowcytometry analysis of MCR1 expression in A2058 malignant melanoma cells. […] Fluorescence intensity was corrected by auto-fluorescence of cells without staining and data were expressed as relative (vs control) fluorescence intensity±SD. Statistical significance was determined by Student's T-test (*P<0.05; **P<0.01; ***P<0.001; ****P<0.0001).
FIG. 3: Flowcytometry analysis of MCR1 expression in SK-Me13 malignant melanoma cells. […] Fluorescence intensity was corrected by auto-fluorescence of cells without staining and data were expressed as relative (vs control) fluorescence intensity±SD. Statistical significance was determined by Student's T-test (*P<0.05; **P<0.01; ***P<0.001; ****P<0.0001, N. S. non-significant).
FIGS. 11A-11D. […] Fluorescence intensity was corrected by PE-conjugated isotype. […]

In data set [1] the test system is BRAFi-resistant A375VR cells. The data set can be described thus: Clonogenic survival of BRAFi-resistant melanoma cells. The format is cell-based, human. The settings on record: in combination with 5 μM vemurafenib, up to 6 days, PBA as low as 500 μM. As to the method: FIGS. 13A-13B. PBA treatment promotes cell death of BRAFi-resistant metastatic melanoma and upregulates MCR1 expression in a time dpe. (A) BRAFi-resistant A375VR cells were incubated with 5 μM vemurafenib in combination with ER-stress-relieving drug 4-PBA for up to 6 days. […] (B) Flow cytometry analysis of MCR1 expression in A2058 and A375 malignant melanoma cells. Cells were treated with 3 mmole 4-PBA for 4 h and 24 h (n=3). The treated and untreated (control) cells were stained with anti-MC1R-phycoerythrin (PE) monoclonal antibody conjugate. Fluorescence intensity was corrected by auto-fluorescence of cells without staining and data were expressed as relative fluorescence intensity (IF) (vs. control)±SD.
Accumulation of misfolded-proteins causes upregulation and detachment of ER resident protein GRP78 from ER sensors proteins—activating the unfolded protein response (UPR) and downstream signaling pathways (including autophagy). […] Thus, the potential for a pharmacological treatment that would sensitize BRAFi-resistant cells to BRAFi by reducing ER-stress was considered. BRAFi-resistant A375VR melanoma cells were incubated with BRAFi vemurafenib alone and in combination with ER-stress relieving PBA.

The next data set has as its system MC1R expression. The data set can be described thus: Real-time PCR analysis of MC1R expression in melanoma cells. The format is cell-based, human. The settings on record: substantiated by flow cytometry and radiopeptide binding. As to the method:
FIG. 10. Real-time PCR analysis of MC1R expression in A2058 and MEWO melanoma cells. A2058 cells were exposed to BRAFi GSK2118436, MEKi GSK1120212 and HDACi PBA for 24 h. Similarly, MEWO cells were treated with PBA and SAHA. Total RNA was isolated and reverse transcripted to cDNA. Real-time PCR was performed using 50 ng of each cDNA sample with labeled primer VIC-MC1R and FAM-NADPH. mRNA fold changes were calculated by ΔΔCt method and expressed as (n=3; Mean±SEM).
qPCR measurements are included to measure the change in MCR1 mRNA with changes in the concentration and incubation time for each drug and combinations (FIG. 10). These experiments are carried out as in FIG. 10 according to manufacturers' protocols, cells are seeded into 6-well plates until ˜80% confluent. After drug treatments, total RNA is isolated (Qiagen RNeasy Mini Kit). 1 μg of total RNA from each cell sample is used for reverse transcription using a high capacity reverse transcription kit (Applied Biosystem). cDNA samples are kept at −80° C. until use. Upon use, cDNA templates are employed in the qRT-PCR using a Taqman Gene Expression Assay for human MC1R (Assay ID: Hs00267167_s1). Human 18S (Assay ID: Hs99999901_s1) and human GAPDH (Assay ID: Hs03929097_g1) are used as housekeeping gene controls. […] Reactions are carried out in Applied Biosystem 7900HT. mRNA level is calculated by comparative ΔΔCt method.

The conditions of data set [2]: cited from earlier work.

The structures appear in SMILES notation. Where a name gives a salt, the structure may show the parent alone.

Regarding `O=C(O)CCCc1ccccc1` [PBA, 4-phenylbutyric acid, sodium salt], the “time dependency of MCR1 expression” value in the data set on MCR1 expression was “significant (time dependent) increase in MCR1 expression”. For the same compound, in data set [1], the clonogenic cell death is reported as roughly 90%. In addition, the “MCR1 expression by RT-PCR” value with MC1R expression is reported as “Enhanced expression of MCR1”. In addition, in data set [2], the “solubility in acetone and diethyl ether” value is reported as “practically insoluble”; the solubility in methanol result is “freely soluble”; the solubility in water result is given as “soluble in water”.
